21 molecules from US11999746B2, “Compounds” (GlaxoSmithKline Intellectual Property Development Limited, priority 2014, dated 2024) can be followed below.

In assay [1] the target is T1, recombinant human Lp-PLA2 (Homo sapiens, UniProt Q13093).
T1 sequence (Q13093 22-441): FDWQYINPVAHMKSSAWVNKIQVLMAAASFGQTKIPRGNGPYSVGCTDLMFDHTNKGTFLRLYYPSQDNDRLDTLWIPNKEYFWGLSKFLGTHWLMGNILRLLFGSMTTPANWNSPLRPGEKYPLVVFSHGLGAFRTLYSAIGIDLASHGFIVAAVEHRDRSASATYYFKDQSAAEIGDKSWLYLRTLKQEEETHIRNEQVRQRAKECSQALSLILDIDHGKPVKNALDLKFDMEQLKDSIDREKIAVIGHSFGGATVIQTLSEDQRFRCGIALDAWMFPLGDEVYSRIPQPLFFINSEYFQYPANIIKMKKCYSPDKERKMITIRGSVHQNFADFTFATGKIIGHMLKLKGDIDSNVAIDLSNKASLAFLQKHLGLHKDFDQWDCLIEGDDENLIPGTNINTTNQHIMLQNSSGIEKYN
Briefly: (1a) PED6 assay, recombinant human Lp-PLA2 (rhLp-PLA2). It is filed as biochemical. The note with it: Examples 1-167 and 413-430 were tested here, one experiment or average of multiple experiments, read-out: rhLp-PLA2 (pIC50) (converted). The essentials:
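PED6 (2 μM final after 1:1 addition of 4 μM stock) cleavage by rhLp-PLA2 (4 nM working solution) in 50 mM HEPES pH 7.4, 150 mM NaCl, 1 mM CHAPS; compounds preincubated with enzyme 30 minutes, reaction 20 min at room temperature. Fluorescence at ex 480/em 540; pIC50 from curve fit.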

The target in assay [2] is T2, Lp-PLA2 in human plasma (Homo sapiens, UniProt Q13093).
T2 construct: from tissue; host or cells: pooled human plasma
T2 sequence (Q13093 22-441): T1 sequence (Q13093 22-441)
The experiment in a line: (3a) Lp-PLA2 human plasma Thio-PAF assay. It is filed as biochemical. To be noted: (3a) Thio-PAF assay, pooled human plasma; Examples 1-265 and 413-430 were tested here; read-out: pIC50 in the Lp-PLA2 human plasma assay (converted). The essentials: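 Pooled human plasma preincubated 30 min with serially diluted compound, then given 2-thio-PAF substrate with CPM and NEM in 50 mM HEPES pH 7.4, 150 mM NaCl, 1 mM CHAPS. Reaction quenched with TFA after 2 min; CPM thiol-adduct fluorescence read at ex 380/em 485 after 40 min; pIC50 reported.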

In the case of `O=c1nc(OCc2cc(F)cc(F)c2)cc2n1C[C@@H]1CCCCN21` [Example E35, (S)-3-((3,5-Difluorobenzyl)oxy)-6,7,8,9,9a,10-hexahydro-1H-pyrido[1′,2′:3,4]imidazo[1,2-c]pyrimidin-1-one], the results for the IC50 in assay [1] and in assay [2] were no more than 100 nM and no more than 10000 nM, respectively.

For the molecule `Cn1cc(Oc2c(F)cc(COc3cc4n(c(=O)n3)C[C@@H]3CCCCN43)cc2F)cn1` [Example E50, (S)-3-((3,5-difluoro-4-((1-methyl-1H-pyrazol-4-yl)oxy)benzyl)oxy)-6,7,8,9,9a,10-hexahydro-1H-pyrido[1′,2′:3,4]imidazo[1,2-c]pyrimidin-1-one], the IC50 in assay [1] is no more than 100 nM; in assay [2], no more than 10000 nM.

On to `CN1c2cc(OCc3cccc(F)c3)nc(=O)n2CC12CCCCC2` [Example 417], for which the results for the IC50 in assay [1] and in assay [2] were no more than 100 nM and no more than 10000 nM, respectively.

For `O=c1nc(OCc2cc(F)c(F)cc2F)cc2n1C[C@@H]1CCCCN21` [Example E59, (S)-3-((2,4,5-Trifluorobenzyl)oxy)-6,7,8,9,9a,10-hexahydro-1H-pyrido[1′,2′:3,4]imidazo[1,2-c]pyrimidin-1-one], the IC50 was no more than 100 nM in assay [1] and no more than 10000 nM in assay [2].

With `O=c1nc(OCCc2cccs2)cc2n1C[C@@H]1CCCCN21` [Example E36, (S)-3-(2-(Thiophen-2-yl)ethoxy)-6,7,8,9,9a,10-hexahydro-1H-pyrido[1′,2′:3,4]imidazo[1,2-c]pyrimidin-1-one], the figures for the IC50 in assay [1] and in assay [2] were no more than 100 nM and no more than 10000 nM, respectively.

Regarding `O=c1nc(OCc2ccc(Oc3ccc(F)c(C(F)(F)F)c3)nc2)cc2n1CC1CCCN21` (stereo not drawn) [Example E82, 3-((6-(4-fluoro-3-(trifluoromethyl)phenoxy)pyridin-3-yl)methoxy)-7,8,8a,9-tetrahydro pyrrolo[1′,2′:3,4]imidazo[1,2-c]pyrimidin-1(6H)-one], the IC50 in assay [1] is no more than 100 nM; in assay [2], no more than 10000 nM.

With `O=c1nc(OCc2ccc(Oc3ccnc(C(F)(F)F)c3)c(F)c2)cc2n1CC1CCCCN21` (stereo not drawn) [Example E44, 3-((3-Fluoro-4-((2-(trifluoromethyl)pyridin-4-yl)oxy)benzyl)oxy)-6,7,8,9,9a,10-hexahydro-1H-pyrido[1′,2′:3,4]imidazo[1,2-c]pyrimidin-1-one], the figures for the IC50 in assay [1] and in assay [2] were no more than 1 nM and no more than 100 nM, respectively.

Regarding `N#Cc1cc(COc2cc3n(c(=O)n2)CC2COCCN32)ccc1Oc1ccc(F)c(C(F)(F)F)c1` (stereo not drawn) [Example E111, 2-(4-Fluoro-3-(trifluoromethyl)phenoxy)-5-(((9-oxo-1,3,4,9,11,11a-hexahydropyrimido[6′,1′:2,3]imidazo[5,1-c][1,4]oxazin-7-yl)oxy)methyl)benzonitrile], the IC50 in assay [1] was no more than 1 nM; in assay [2], no more than 100 nM.

Consider `Cc1cc(Oc2c(F)cc(COc3cc4n(c(=O)n3)C[C@H]3COCCN43)cc2F)ccn1` [Example E124, (S)-7-((3,5-difluoro-4-((2-methylpyridin-4-yl)oxy)benzyl)oxy)-3,4,11,11atetrahydropyrimido[6′,1′:2,3]imidazo[5,1-c][1,4]oxazin-9(1H)-one], for which the IC50 in assay [1] is 0.501 nM; in assay [2] it was no more than 100 nM.

With `CN1c2cc(OCc3cc(F)c(F)cc3F)nc(=O)n2CC12CCCC2` [Example 415, 1-methyl-7′-((2,4,5-trifluorobenzyl)oxy)-1′H-spiro[cyclopentane-1,2′-imidazo[1,2-c]pyrimidin]-5′(3′H)-one], the IC50 in assay [1] was no more than 100 nM; in assay [2], no more than 10000 nM.

For `O=c1nc(OCc2cc(F)c(F)c(Cl)c2)cc2n1CC1CCCCN21` (stereo not drawn) [Example E16, 3-((3-Chloro-4,5-difluorobenzyl)oxy)-6,7,8,9,9a,10-hexahydro-1H-pyrido[1′,2′:3,4] imidazo[1,2-c]pyrimidin-1-one], the IC50 in assay [1] was no more than 100 nM; in assay [2] it was no more than 10000 nM.

Turning to `CN1c2cc(OCc3cccc(F)c3F)nc(=O)n2CC12CCCCC2` [Example 425, 7′4(2,3-difluorobenzyhoxy)-1-methyl-1H-spiro[cyclohexane-1,2′-imidazo[1,2-c]pyrimidin]-5′(3′H)-one], the IC50 is no more than 100 nM in assay [1] and no more than 10000 nM in assay [2].

As to `Cn1cc(Oc2c(F)cc(COc3cc4n(c(=O)n3)C[C@H]3CCOCN43)cc2F)cn1` [Example E137, (R)-3-((3,5-difluoro-4-((1-methyl-1H-pyrazol-4-yl)oxy)benzyl)oxy)-8,9,9a,10-tetrahydropyrimido[6′,1′:2,3]imidazo[1,5-c][1,3]oxazin-1(6H)-one], the IC50 in assay [1] is no more than 100 nM; in assay [2], no more than 10000 nM.

`N#Cc1cc(COc2cc3n(c(=O)n2)CC2CCCN32)ccc1Oc1ccc(Cl)c(C(F)(F)F)c1` (stereo not drawn) [Example E77, 2-(4-Chloro-3-(trifluoromethyl)phenoxy)-5-(((1-oxo-1,6,7,8,8a,9-hexahydropyrrolo[1,2′:3,4]imidazo[1,2-c]pyrimidin-3-yl)oxy)methyl)benzonitrile]: the IC50 was no more than 1 nM in assay [1] and no more than 100 nM in assay [2].

In the case of `O=c1nc(OCc2cccc(F)c2)cc2n1C[C@@H]1CCOCN21` [Example E138, (S)-3-((3-fluorobenzyl)oxy)-8,9,9a,10-tetrahydropyrimido[6′,1′:2,3]imidazo[1,5-c][1,3] oxazin-1(6H)-one], the IC50 was no more than 100 nM in assay [1] and no more than 10000 nM in assay [2].

On to `O=c1nc(OCc2cc(F)c(Oc3ccnc(C(F)(F)F)c3)c(F)c2)cc2n1CC1CCCN21` (stereo not drawn) [Example E75, 3-((3,5-difluoro-4-((2-(trifluoromethyl)pyridin-4-yl)oxy)benzyl)oxy)-7,8,8a, 9-tetrahydro pyrrolo[1′, 2′:3, 4]imidazo[1,2-c]pyrimidin-1(6H)-one], for which the IC50 in assay [1] was no more than 1 nM; in assay [2], no more than 100 nM.

As to `O=c1nc(OCc2ccc(Oc3cncc(C(F)(F)F)c3)c(F)c2)cc2n1C[C@@H]1CCCCN21` [Example E42, (S)-3-((3-fluoro-4-((5-(trifluoromethyl)pyridin-3-yl)oxy)benzyl)oxy)-6,7,8,9,9a,10-hexahydro-1H-pyrido[1′,2′:3,4]imidazo[1,2-c]pyrimidin-1-one], the IC50 is no more than 1 nM in assay [1] and no more than 100 nM in assay [2].

For `O=c1nc(OCc2cc(F)c(Oc3ccnc(C(F)(F)F)c3)c(F)c2)cc2n1CC1CCCCN21` (stereo not drawn) [Example E41], the IC50 in assay [1] is no more than 1 nM; in assay [2], no more than 100 nM.

Turning to `N#Cc1cc(COc2cc3n(c(=O)n2)CC2CCCCN32)ccc1Oc1cccc(C(F)(F)F)c1` (stereo not drawn) [Example E12, 5-(((1-Oxo-6,7,8,9,9a,10-hexahydro-1H-pyrido[1′,2′:3,4]imidazo[1,2-c]pyrimidin-3-yl)oxy)methyl)-2-(3-(trifluoromethyl)phenoxy)benzonitrile], the IC50 in assay [1] was no more than 1 nM; in assay [2], no more than 100 nM.

As to `O=c1nc(OCc2cccc(F)c2)cc2n1C[C@H]1CCCCN21` [Example E52, (R)-3-((3-Fluorobenzyl)oxy)-6,7,8,9,9a,10-hexahydro-1H-pyrido[1′,2′:3,4]imidazo[1,2-c] pyrimidin-1-one], the IC50 in assay [1] and in assay [2] was no more than 100 nM in each case.

`CN1c2cc(OCc3cc(F)c(F)cc3F)nc(=O)n2CC12CCCCC2` [Example 428, 1-methyl-7′-((2,4,5-trifluorobenzyl)oxy)-1′H-spiro[cyclohexane-1,2′-imidazo[1,2-c]pyrimidin]-5′(3′H)-one]: the IC50 is no more than 100 nM in assay [1] and no more than 10000 nM in assay [2].
